Test results published in US4656192A, “Tropolone derivatives, processes for the preparation thereof and the use thereof as anti-tumor agents” (Mect Corporation, priority 1984, dated 1987).
Values after ≈ are worked out from the molar mass of the structure shown.

Legend:
P388 cancer cells = assay: Tests of life-prolongation effects on cancered mice (P388, i.p.); format: in vivo; details: Mus musculus, P388, ip, i.p. on first and fifth day, P388 in CDF mice, read-out: Life-prolongation effects T/C %
Procedure: 10^6 P388 cancer cells were grafted into groups of CDF mice. Each group consisted of six mice. On the first day and the fifth day, a sample to be tested was administered to the mice intraperitoneally. The life-prolongation effects were shown in terms of the ratio of the number of surviving days of the mice in the treated group to that in the control group (T/C %).

KB-cells = assay: KB-cell growth inhibition tests; format: cell-based; details: Homo sapiens, 48 h, MEM-10% calf serum, 5% CO2, 37° C., sample added second day, surviving cells counted fourth day, substantially 50% growth inhibition vs sample-free control, read-out: KB cell growth inhibition ED50
Procedure: KB-cells were placed in an Eagles minimal essential medium (MEM)-10% calf serum medium and cultered in a 5 % carbon dioxide atmosphere at 37° C. in an incubator. The cells thus treated were used in the tests. On the first day, the KB cells were diluted to a concentration of 2×10^4 /ml 3 ml of the resulting suspension was placed in watch glasses having a diameter of 60 mm. On the second day, 100, 30, 10, 3 and 1 μg/ml of each sample to be tested was added thereto and the culture was continued under the same conditions as above. On the fourth day, the surviving cells were taken out of the watch glass by meand of trypsin and the number of the cells was counted. The concentration of the sample required for obtaining substantially 50 % growth inhibition based on the sample-free control (ED50) was determined. The cancer cell growth inhibition effect of the sample was shown by ED50.

Acute toxicity in mice = details: mouse, in vivo, male mice
From the text: The compounds of the present invention have only a low acute toxicity. For example, the acute toxicities of typical compounds, i.e., α,α-bis(2-hydroxy-6-isopropyl-tropon-3-yl)toluene (IIIa) and α,α-bis(2-hydroxy-6-isopropyl-tropon-3-yl)-4-methoxytoluene (IIIb) have LD50 as shown in the following table: […]

Work on CCOC(c1ccccc1)c1ccc(C(C)C)cc(=O)c1O (stereo not drawn) [Ia] yielded a response vs control in vivo at 200 mg/kg (P388 cancer cells) of 109% and an IC50 (KB-cells) of less than 0.3 µg/mL.
For CC(C)c1ccc(C(c2ccccc2)c2ccccc2)c(O)c(=O)c1 [Ie, 3-benzhydryl-6-isopropyltropolone], the response vs control in vivo at 200 mg/kg (P388 cancer cells) was 123%, the response vs control in vivo at 400 mg/kg (P388 cancer cells) was 132% and the IC50 (KB-cells) was 1.39 µg/mL (≈ 4.21 µM).
With CC(C)c1ccc(C2OCCc3ccccc32)c(O)c(=O)c1 (stereo not drawn) [IIa, 3-(1-isochromanyl)-6-isopropyltropolone] the response vs control in vivo at 100 mg/kg (P388 cancer cells) was 126% and the IC50 (KB-cells) was less than 0.3 µg/mL.
For CCOC(c1ccc(C)cc1)c1ccc(C(C)C)cc(=O)c1O (stereo not drawn) [Ib, 3-(α-ethoxy-4-methylbenzyl)-6-isopropyltropolone], the response vs control in vivo at 400 mg/kg (P388 cancer cells) was 125% and the IC50 (KB-cells) was 6.2 µg/mL (≈ 19.8 µM).
O=c1ccccc(C2OCCc3ccccc32)c1O (stereo not drawn) [IIb, 3-(1-isochromanyl)tropolone] gave a response vs control in vivo at 100 mg/kg (P388 cancer cells) of 96%.
In the case of COc1ccc(C(c2cc(C(C)C)ccc(=O)c2O)c2cc(C(C)C)ccc(=O)c2O)cc1 [IVa, α,α-bis(2-hydroxy-5-isopropyltropon-3-yl)-4-methoxytoluene], the response vs control in vivo at 2.5 mg/kg (P388 cancer cells) is reported as 137%, the response vs control in vivo at 10 mg/kg (P388 cancer cells) is reported as 147% and the IC50 (KB-cells) is reported as 0.3 µg/mL (≈ 0.672 µM).
For Cc1ccc(C(c2ccc(C(C)C)cc(=O)c2O)c2ccc(C(C)C)cc(=O)c2O)cc1 [IIIc, α,α-bis(2-hydroxy-6-isopropyl-tropon-3-yl)-4-methyltoluene], the response vs control in vivo at 2.5 mg/kg (P388 cancer cells) was 125%, the response vs control in vivo at 10 mg/kg (P388 cancer cells) was 163% and the IC50 (KB-cells) was 1.45 µg/mL (≈ 3.37 µM).
For CC(C)c1ccc(C(c2ccc(Cl)cc2)c2ccc(C(C)C)cc(=O)c2O)c(O)c(=O)c1 [IIId, α,α-bis(2-hydroxy-6-isopropyl-tropon-3yl)-4-chlorotoluene], the response vs control in vivo at 2.5 mg/kg (P388 cancer cells) was 124%, the response vs control in vivo at 10 mg/kg (P388 cancer cells) was 144% and the IC50 (KB-cells) was 2 µg/mL (≈ 4.43 µM).
For CC(C)c1ccc(Cc2ccccc2)c(O)c(=O)c1 [If, 3-benzyl-6-isopropyltropolone], the response vs control in vivo at 200 mg/kg (P388 cancer cells) was 97% and the IC50 (KB-cells) was 0.56 µg/mL (≈ 2.2 µM).
In the case of CCOC(c1ccc(N(C)C)cc1)c1ccc(C(C)C)cc(=O)c1O (stereo not drawn) [Id, 3-[α-ethoxy-4-(N,N-dimethylamino)benzyl]-6-isopropyltropolone], the response vs control in vivo at 100 mg/kg (P388 cancer cells) is reported as 136% and the IC50 (KB-cells) is reported as 0.59 µg/mL (≈ 1.73 µM).
CC(C)c1ccc(C(c2ccc(N(C)C)cc2)c2ccc(C(C)C)cc(=O)c2O)c(O)c(=O)c1 [IIIe, α,α-bis(2-hydroxy-6-isopropyl-tropon-3-yl)-4-(N,N-dimethylamino)toluene] showed a response vs control in vivo at 2.5 mg/kg (P388 cancer cells) of 141% and an IC50 (KB-cells) of 0.69 µg/mL (≈ 1.5 µM).
CC(C)c1ccc(C(c2ccccc2)c2ccc(C(C)C)cc(=O)c2O)c(O)c(=O)c1 [IIIa, α,α-bis(2-hydroxy-6-isopropyl-tropon-3-yl)toluene] gave a response vs control in vivo at 1.25 mg/kg (P388 cancer cells; 1.25 mg/kg) of 132%, a response vs control in vivo at 5 mg/kg (P388 cancer cells) of 188% and an LD50 (Acute toxicity in mice; ip) of 5.5 mg/kg. For the same compound, the LD50 (Acute toxicity in mice; iv) was 5.8 mg/kg, the LD50 (Acute toxicity in mice; po) was greater than 5000 mg/kg and the IC50 (KB-cells) was less than 0.3 µg/mL.
Work on CCOC(c1ccc(OC)cc1)c1ccc(C(C)C)cc(=O)c1O (stereo not drawn) [Ic, 3-(α-ethoxy-4-methoxybenzyl)-6-isopropyltropolone] yielded a response vs control in vivo at 100 mg/kg (P388 cancer cells) of 140% and an IC50 (KB-cells) of 0.51 µg/mL (≈ 1.55 µM).
Compound COc1ccc(C(c2ccc(C(C)C)cc(=O)c2O)c2ccc(C(C)C)cc(=O)c2O)cc1 [IIIb, α,α-bis(2-hydroxy-6-isopropyl-tropon-3-yl)-4-methoxytoluene] has a response vs control in vivo at 0.62 mg/kg (P388 cancer cells; 0.62 mg/kg) of 127%, a response vs control in vivo at 5 mg/kg (P388 cancer cells) of 173% and an LD50 (Acute toxicity in mice; ip) of 11.2 mg/kg. The LD50 (Acute toxicity in mice; iv) was 9.1 mg/kg, the LD50 (Acute toxicity in mice; po) was greater than 5000 mg/kg and the IC50 (KB-cells) was less than 0.3 µg/mL.
